We go through 4 molecules from patent US20030113330A1, “Methods for treating pulmonary fibrosis” (priority 1999, published 2003).

Like-named read-outs stand apart in the source and are kept apart here.

The test system of series [1] is primary rat AEC. Briefly: Fas ligand-induced apoptosis of primary rat alveolar epithelial cells. It is filed as cell-based. The settings on record: captopril, lisinopril 500 ng/ml; caspase inhibitors 60 uM. The procedure: Lung Cell Isolation and Detection of Apoptosis In Vitro. Primary alveolar epithelial cells (AEC) were isolated from adult male Wistar rats as described above. The primary cells were studied at day two of culture, a time at which they are type II cell-like by accepted morphologic and biochemical criteria, see Paine et al., Am. J. Physiol. […] All cells were seeded in 24-well or 6-well chambers, and all experiments were conducted at subconfluent densities of 80-90% in serum-free Ham's F12 medium. Test reagents were diluted with Ham's F12 medium and were applied for 20 hours at 37° C. in a 5% CO2 incubator.
Detection of apoptotic cells with propidium iodide (PI) was conducted as described above, following digestion of ethanol-fixed cells with DNAse-free RNAse in PBS containing 5 ug/ml PI.
Expression of FAS by alveolar epithelial cells is observed during bleomycin-induced fibrogenesis in mice. See Hagimoto, et al., Am. J. Respir. Cell Mol. Biol. 16:91-101 (1997). […] Apoptosis was detected by quantitation of fragmented nuclei (see above).
Cell Culture and Detection of Apoptosis. The human lung adenocarcinoma cell line A549 was obtained from American Type Culture Collection and cultured in Ham's F12 medium supplemented with 10% fetal bovine serum (FBS). Primary alveolar epithelial cells were isolated from adult male Wistar rats as described earlier (Uhal, B. D., I. Joshi, A. True, S. Mundle, A. Raza, A. Pardo and M. Selman. Fibroblasts isolated after fibrotic lung injury induce apoptosis of alveolar epithelial cells in vitro. Am. J. Physiol. 269:L819-L828, 1995); Wang, R., A. Zagariya, 0. Ibarra-Sunga, C. […] Am. J. Physiol. 276:L885-L889 (1999)). […] All cells were seeded in 24-well or 6-well chambers, and all experiments were conducted at subconfluent densities of 80-90% in serum-free Ham's F12 medium. Test reagents were diluted with serum-free Ham's F12 medium and were applied under serum-free conditions for 20 hours at 37C. in a 5% CO2 incubator. Detection of apoptotic cells with propidium iodide (PI) was conducted as described above Am. J. Physiol. 275:L1013-1017 (1998); Uhal et al., following digestion of ethanol-fixed cells with DNAse-free RNAse in PBS containing 5 μg/ml PI. In all assays, detached cells were retained by centrifugation of the culture vessels during fixation with 70% ethanol, or by retention of culture media and recovery by centrifugation before assay.
Apoptosis was detected by nuclear fragmentation as described above.

Series [2] relates to primary rat AEC. Briefly: Angiotensin II-induced apoptosis in primary rat AEC (nuclear fragmentation, PI). It is filed as cell-based. The following applies: ANGII 5.0 uM; saralasin 50 ug/ml, lisinopril 500 ng/ml. An excerpt: Cell Culture. The human lung adenocarcinoma cell line A549 was obtained from American Type Culture Collection and cultured in Ham's F12 medium supplemented with 10% fetal bovine serum (FBS). Primary alveolar epithelial cells were isolated from adult male Wistar rats as described in Uhal et al., Am. J. Physiol. Suppl. (Oct.) 261:110-117 (1991) and Uhal et al., Am. J. Physiol. 269:L819-L828 (1995). The primary cells were studied at day two of culture, a time at which they are type II cell-like by accepted morphologic and biochemical criteria, see Uhal, Am. J. Physiol. 272:L1031-L1045 (1997). […] J. Physiol. Suppl. (October) 261:110-117 (1991). All cells were seeded in 24-well or 6-well chambers, and all experiments were conducted at subconfluent densities of 80-90% in serum-free Ham's F12 medium. Test reagents were diluted with Ham's F12 medium and were applied for 20 h at 37° C. in a 5% CO2 incubator.
Detection of Apoptosis. Detection of apoptotic cells with propidium iodide (PI) was conducted as described in Uhal, et al., Am. J. Physiol. 275:L1013-1017 (1998) following digestion of ethanol-fixed cells with DNAse-free RNAse in PBS containing 5 ug/ml PI. Assay of Annexin V binding by flow cytometry was performed essentially as described for human lung fibroblasts in Uhal, et al., Am. J. Physiol. 275:L998-L1005 (1998) after trypsinization of cells from culture vessels. Assay of Caspase-3 activity was performed on viable suspension cultures as reported in Uhal, et al., Am. J. Physiol. 275:L1013-1017 (1998). In all assays, detached cells were retained by centrifugation of the culture vessels during fixation with 70% ethanol, or by retention of culture media and recovery by centrifugation before assay.
(§1) For microscopy, cells were cultured on glass cover slips, incubated with test reagents and fixed with 70% ethanol. The fixed cells were immunolabeled overnight at 4° C. with monoclonal antibodies to cytokeratins 7 and 19 (Chemicon International, Temecula, Calif.), and then for one hour at 37° C. with anti-mouse IgG-rhodamine and DNAse-free RNAse (Boehringer Mannheim, Indianapolis, Ind.) The cover slips were then rinsed in distilled water three times and mounted under Fluoromount Solution (Southern Biotechnology Associates, Birmingham, Ala.) containing 5 ug/ml propidium iodide. Photomicroscopy was performed as described in Uhal, et al., Am. J. Physiol. 275:L1013-1017 (1998).
Apoptosis in alveolar epithelial cells was quantitated by fluorescence detection of chromatin condensation and nuclear fragmentation in alcohol-fixed cells stained with propidium iodide. See Uhal, et al., Am. J. Physiol. 275:L1013-1017 (1998). […] After 20 h, the culture vessel was centrifuged to retain detached cells and labeled with anticytokeratin antibodies and propidium iodide. […] Double labeling with PI and monoclonal antibodies to cytokeratins 7 and 19 identified cells with both apoptotic nuclear morphology and positive anticytokeratin immunoreactivity.

Series [3] has as its system A549 cells. Here is the method: (§2) The human lung adenocarcinoma cell line A549 (ATCC) was cultured in Ham's F12 medium supplemented with 10% fetal bovine serum (FBS). Primary alveolar epithelial cells were isolated from adult male Wistar rats. The primary cells were studied at day two of culture, a time at which they are type II cell-like by accepted morphologic and biochemical criteria. […] All cells were seeded in 24-well or 6-well chambers, and all experiments were conducted at subconfluent densities of 80-90% in serum-free Ham's F12 medium. Test reagents were diluted with Ham's F12 medium and were applied for 20 hours at 37C. in a 5% CO2 incubator.
(§3) Apoptotic cells were detected using propidium iodide (PI) following digestion of ethanol-fixed cells with DNAse-free RNAse in PBS containing 5 ug/ml PI. […] In replicate culture vessels, necrosis was detected as the loss of exclusion of PI after application of the vital dye directly to the cell culture medium at 5 ug/ml final concentration. Red fluorescent (PI-POSITIVE) cells (>570 nm) were scored over the subsequent hour as a percentage of the total cells in any given field. A minimum of 4 separate fields were scored in each of three separate culture vessels per experiment condition; all experiments were performed at least twice and the data were compiled. Although all necrotic cells are PI-positive, some apoptotic cells may also take up the dye but these comprise a minor fraction of the total dead cell population.
(§4) In all assays, detached cells were retained by centrifugation of the culture vessel at 300×g for 10 minutes with a centrifuge rotor designed for culture plates. For detection of necrosis (dye exclusion of PI), the PI was added directly to the cell culture medium immediately before centrifugation of the culture vessel. For detection of apoptosis, ethanol was added directly to the cell culture medium to a final concentration of 70% immediately before the centrifugation. Afterward, the ethanol was carefully removed and the total cell population (attached plus sedimented detached cells) were stained with PI as described above.

Series [4] concerns primary rat AEC. Here is the method: as §2, §3, §4
The test system of a further series is primary rat AECs. Briefly: TNF-α-induced apoptosis of primary rat AECs. The following applies: purified TNF-α. In kind it is cell-based.
In another series the test system is human A549 cells. It is filed as cell-based.
The test system of series [5] is primary cultures of rat AEC. In kind it is cell-based. The settings on record: 20 h.
Description: (§5) The human lung adenocarcinoma cell line A549 (ATCC) was cultured in Ham's F12 medium supplemented with 10% fetal bovine serum (FBS). Primary alveolar epithelial cells were isolated from adult male Wistar rats. The primary cells were studied at day two of culture, a time at which they are type II cell-like by accepted morphologic and biochemical criteria. All primary cell preparations were of better than 90% purity assessed by acridine orange staining. All cells were seeded in 24-well or 6-well chambers, and all experiments were conducted at subconfluent densities of 80-90% in serum-free Ham's F12 medium. Test reagents were diluted with Ham's F12 medium and were applied for 20 hours at 37C. in a 5% CO2 incubator.
The test system of series [6] is A549 cells. Briefly: Amiodarone-induced net cell loss in A549 cultures. It is filed as cell-based, human. The settings on record: 20 hours exposure.
Description: (§6) Primary alveolar epithelial cells were isolated from adult male Wistar rats. The primary cells were studied at day two of culture, a time at which they are type II cell-like by accepted morphologic and biochemical criteria. All primary cell preparations were of better than 90% purity assessed by acridine orange staining. All cells were seeded in 24-well or 6-well chambers, and all experiments were conducted at subconfluent densities of 80-90% in serum-free Ham's F12 medium. Test reagents were diluted with Ham's F12 medium and were applied for 20 hours at 37C. in a 5% CO2 incubator.
(§7) Importantly, unattached cells were recovered and included in the analyses, and thus the data represent true loss of cells rather than simple detachment from the substratum.
For series [7], the system named is primary rat AEC. Briefly: Amiodarone-induced net cell loss in primary rat AEC cultures. In kind it is cell-based. The settings on record: 20 hours exposure.
Description: as §6, §7
The conditions of series [8]: AIPT; cited from earlier work.
The test system of series [9] is primary rat AEC. Briefly: Angiotensinogen-induced apoptosis in primary rat AEC. In kind it is cell-based. The following applies: 5 uM. Here is the method: Cell Culture. […] J. Physiol. Suppl. […] J. Physiol. […] J. Physiol. […] J. Physiol. Suppl.
Detection of Apoptosis. […] J. Physiol. […] Assay of Annexin V binding by flow cytometry was performed essentially as described for human lung fibroblasts in Uhal, et al., Am. J. Physiol. […] Assay of Caspase-3 activity was performed on viable suspension cultures as reported in Uhal, et al., Am. J. Physiol.
as §1, with “Physiol.” for “Physiol. 275:L1013-1017 (1998).”

The next series relates to A549 cell line. Briefly: Angiotensinogen-induced apoptosis in A549 cells. In kind it is cell-based, human. The procedure:
Cell Culture. […] J. Physiol. Suppl. (Oct.) 261:110-117 (1991) and Uhal et al., Am. J. Physiol. 269:L819-L828 (1995). […] J. Physiol. 272:L1031-L1045 (1997). […] J. Physiol. Suppl. (October) 261:110-117 (1991).
Detection of Apoptosis. […] J. Physiol. […] Assay of Annexin V binding by flow cytometry was performed essentially as described for human lung fibroblasts in Uhal, et al., Am. J. Physiol. 275:L998-L1005 (1998) after trypsinization of cells from culture vessels. Assay of Caspase-3 activity was performed on viable suspension cultures as reported in Uhal, et al., Am. J. Physiol. 275:L1013-1017 (1998).
as §1

Description for human A549 cells: as §5
Apoptotic cells were detected using propidium iodide (PI) following digestion of ethanol-fixed cells with DNAse-free RNAse in PBS containing 5 ug/ml PI. […] In replicate culture vessels, necrosis was detected as the loss of exclusion of PI after application of the vital dye directly to the cell culture medium at 5 ug/ml final concentration. Red fluorescent (PI-POSITIVE) cells (>570 nm) were scored over the subsequent hour as a percentage of the total cells in any given field. A minimum of 4 separate fields were scored in each of three separate culture vessels per experiment condition; all experiments were performed at least twice and the data were compiled. […]

For the molecule `CCCCc1nc(Cl)c(CO)n1Cc1ccc(-c2ccccc2-c2nn[nH]n2)cc1` [Losartan, losartan], the “inhibition of Fas ligand-induced apoptosis of primary rat AEC (words)” value with primary rat AEC [1] is “abrogated”. Moreover, the “inhibition of ANGII-induced apoptosis of primary rat AEC” value with primary rat AEC [2] was “abrogated”. In addition, the “inhibition of amiodarone-induced apoptosis” value in the series on A549 cells [3] (captopril 500 ng/ml, saralasin 50 ug/ml, Losartan 5 pg/ml) is recorded as “completely blocked”; in the series on primary rat AEC [4] (captopril 500 ng/ml, saralasin 50 ug/ml, Losartan 5 pg/ml, amiodarone 2.5 ug/ml for chelerythrine, orthovanadate), “completely blocked”. In the series on primary rat AECs, the “inhibition of TNF-α-induced apoptosis” value is reported as “abrogated”.

Turning to `CCCCc1oc2ccccc2c1C(=O)c1cc(I)c(OCCNCC)c(I)c1` [desethylamiodarone], the “concentration at which necrosis / significant cell death begins” value with human A549 cells (human, 20 h) worked out at 5000 ng/mL. In series [5] (male, Wistar, rat), the “concentration at which significant cell death / toxicity begins” value was 100 ng/mL and the “cytotoxicity at the higher doses” value is approximately 100%. Moreover, the “concentration at which apoptosis begins” value in the series on A549 cells [3] (human, 20 h) is 5000 ng/mL. Further, the “concentration at which significant apoptosis begins” value in the series with primary rat AEC [4] (male, Wistar, rat, 20 h) is 2500 ng/mL. For the same molecule, the “effect on total cell number” value in the series with A549 cells [6] was “significantly decreased”. For the same molecule, the “effect on total cell number” value in the series on primary rat AEC [7] is listed as “significantly decreased”.

For the molecule `CCCCc1oc2ccccc2c1C(=O)c1cc(I)c(OCCN(CC)CC)c(I)c1` [amiodarone], the “concentration at which necrosis / significant cell death begins” value with human A549 cells (A549, 20 h) was 10000 ng/mL. For the same molecule, the “concentration at which significant cell death / toxicity begins” value in [5] (primary rat AEC) is 2500 ng/mL; in series [5] (primary rat AEC, listed as AM), 1000 ng/mL. In the series on A549 cells [3] (10 ug/ml AM, 5 ug/ml DES), the “maximum increase in apoptotic cells” value turned out to be 10 fold. Also, in the series with A549 cells [3] (A549), the “concentration at which apoptosis begins” value came to 10000 ng/mL. The induction of apoptosis with primary rat AEC [4] (15 ug/ml AM, 5 ug/ml DES) stood at 16 fold. The “concentration at which significant apoptosis begins” value in the series on primary rat AEC [4] (primary AEC) was 2500 ng/mL. The “effect on total cell number” value in the series with A549 cells [6] and in the series on primary rat AEC [7] was “significantly decreased” throughout. For the same molecule, the “estimated mortality of affected patients” value in series [8] is given as 5 to 10%.

B1: angiotensinogen: purified angiotensinogen, serum globulin precursor of angiotensin I (protein, UniProt P01019 25-476, looked up)
Angiotensinogen: DRVYIHPFHLVIHNESTCEQLAKANAGKPKDPTFIPAPIQAKTSPVDEKALQDQLVLVAAKLDTEDKLRAAMVGMLANFLGFRIYGMHSELWGVVHGATVLSPTAVFGTLASLYLGALDHTADRLQAILGVPWKDKNCTSRLDAHKVLSALQAVQGLLVAQGRADSQAQLLLSTVVGVFTAPGLHLKQPFVQGLALYTPVVLPRSLDFTELDVAAEKIDRFMQAVTGWKTGCSLMGASVDSTLAFNTYVHFQGKMKGFSLLAEPQEFWVDNSTSVSVPMLSGMGTFQHWSDIQDNFSVTQVPFTESACLLLIQPHYASDLDKVEGLTFQQNSLNWMKKLSPRTIHLTMPQLVLQGSYDLQDLLAQAELPAILHTELNLQKLSNDRIRVGEVLNSIFFELEADEREPTESTQQLNKPEVLEVTLNRPFLFAVYDQSATALHFLGRVANPLSTA
Consider B1, for which the “induction of apoptosis by angiotensinogen” value with primary rat AEC [9] is “induced apoptosis with the same potency as did ANGII”; in the series on A549 cell line, “not capable of inducing apoptosis”.
